Measured values from ChEMBL document CHEMBL4308885, “The development of myeloperoxidase inhibitors” (Bioorg Med Chem Lett, 2019).

Columns and labels:
Myeloperoxidase [1] = target: T1, Myeloperoxidase (Homo sapiens, UniProt P05164); assay: Inhibition of MPO (unknown origin) using H2O2 as substrate
T1 sequence (P05164 whole entry): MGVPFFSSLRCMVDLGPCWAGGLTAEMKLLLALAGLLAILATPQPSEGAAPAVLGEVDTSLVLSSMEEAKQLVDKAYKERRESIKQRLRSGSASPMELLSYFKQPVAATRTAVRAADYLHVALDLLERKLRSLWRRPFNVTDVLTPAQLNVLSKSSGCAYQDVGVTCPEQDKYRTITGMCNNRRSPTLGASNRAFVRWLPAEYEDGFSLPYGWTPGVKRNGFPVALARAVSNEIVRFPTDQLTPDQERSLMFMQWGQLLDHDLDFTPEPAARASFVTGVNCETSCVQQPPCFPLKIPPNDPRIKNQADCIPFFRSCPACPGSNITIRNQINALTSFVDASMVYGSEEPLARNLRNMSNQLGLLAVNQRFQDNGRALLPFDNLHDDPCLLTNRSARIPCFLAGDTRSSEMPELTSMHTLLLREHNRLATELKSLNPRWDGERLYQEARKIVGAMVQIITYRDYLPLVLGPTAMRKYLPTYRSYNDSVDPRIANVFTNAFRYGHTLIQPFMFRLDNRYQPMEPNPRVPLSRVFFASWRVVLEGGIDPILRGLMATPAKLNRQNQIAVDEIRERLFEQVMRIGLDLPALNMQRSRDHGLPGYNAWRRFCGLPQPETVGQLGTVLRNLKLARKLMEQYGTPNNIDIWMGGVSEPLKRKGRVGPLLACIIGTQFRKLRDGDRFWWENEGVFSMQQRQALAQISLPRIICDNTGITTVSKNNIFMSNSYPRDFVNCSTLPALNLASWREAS

Myeloperoxidase [2] = target: T1, Myeloperoxidase; assay: Inhibition of MPO (unknown origin)
[3] = target: T2, Myeloperoxidase (Homo sapiens) (UniProt P05164); assay: Inhibition of MPO in human neutrophils at 10'4 M using H2O2 as substrate measured for 30 secs in presence of o-dianisidine hydrochloride by spectrophotometric method relative to control
T2 sequence (whole entry): T1 sequence (P05164 whole entry)

Myeloperoxidase [4] = target: T1, Myeloperoxidase; assay: Inhibition of MPO in human neutrophils using H2O2 as substrate measured after 5 mins
[5] = target: T2, Myeloperoxidase (Homo sapiens); assay: Inhibition of MPO in human neutrophils assessed as reduction in PMA-stimulated HOCl production at 1 uM relative to control

COc1ccc2[nH]cc(CCNC(C)=O)c2c1 [MELATONIN]
IC50 (Myeloperoxidase [1]): 3000 nM

Nc1ccc(S(=O)(=O)c2ccc(N)cc2)cc1 [DAPSONE]
IC50 (Myeloperoxidase [2]): 420 nM

CC(=O)Oc1ccccc1C(=O)O [ASPIRIN]
IC50 (Myeloperoxidase [2]): 200000 nM

O=c1c(O)c(-c2ccc(O)c(O)c2)oc2cc(O)cc(O)c12
inhibition [3]: 100%

NNC(=O)c1ccc(O)cc1
IC50 (Myeloperoxidase [4]): 2000 nM

N[C@@H](Cc1c[nH]c2ccccc12)C(=O)O [TRYPTOPHAN]
IC50 (Myeloperoxidase [1]): 2250 nM

CC(C)OCCn1c(=S)[nH]c(=O)c2[nH]ccc21
IC50 (Myeloperoxidase [2]): 630 nM

O=c1[nH]c(=S)n(C[C@H]2CCCO2)c2nc[nH]c12
inhibition [5]: 90%
